The source of these data is US20030186967A1, “Acylresorcinol derivatives are selective vitronectin receptor inhibitors” (American Home Products Corporation, priority 1998, published 2003).

For this test, the target named is T1, Vitronectin receptor αVβ3 (Homo sapiens, UniProt P05106+P06756).
T1 construct: expressed in transfected cells; host or cells: 512P5 cells (plasma membrane preparation)
The test can be described thus: Vitronectin Receptor αVβ3 Binding Assay. To be noted: read-out: VnR (IC50μM).

T1 sequence (P06756 31-889 limits assumed): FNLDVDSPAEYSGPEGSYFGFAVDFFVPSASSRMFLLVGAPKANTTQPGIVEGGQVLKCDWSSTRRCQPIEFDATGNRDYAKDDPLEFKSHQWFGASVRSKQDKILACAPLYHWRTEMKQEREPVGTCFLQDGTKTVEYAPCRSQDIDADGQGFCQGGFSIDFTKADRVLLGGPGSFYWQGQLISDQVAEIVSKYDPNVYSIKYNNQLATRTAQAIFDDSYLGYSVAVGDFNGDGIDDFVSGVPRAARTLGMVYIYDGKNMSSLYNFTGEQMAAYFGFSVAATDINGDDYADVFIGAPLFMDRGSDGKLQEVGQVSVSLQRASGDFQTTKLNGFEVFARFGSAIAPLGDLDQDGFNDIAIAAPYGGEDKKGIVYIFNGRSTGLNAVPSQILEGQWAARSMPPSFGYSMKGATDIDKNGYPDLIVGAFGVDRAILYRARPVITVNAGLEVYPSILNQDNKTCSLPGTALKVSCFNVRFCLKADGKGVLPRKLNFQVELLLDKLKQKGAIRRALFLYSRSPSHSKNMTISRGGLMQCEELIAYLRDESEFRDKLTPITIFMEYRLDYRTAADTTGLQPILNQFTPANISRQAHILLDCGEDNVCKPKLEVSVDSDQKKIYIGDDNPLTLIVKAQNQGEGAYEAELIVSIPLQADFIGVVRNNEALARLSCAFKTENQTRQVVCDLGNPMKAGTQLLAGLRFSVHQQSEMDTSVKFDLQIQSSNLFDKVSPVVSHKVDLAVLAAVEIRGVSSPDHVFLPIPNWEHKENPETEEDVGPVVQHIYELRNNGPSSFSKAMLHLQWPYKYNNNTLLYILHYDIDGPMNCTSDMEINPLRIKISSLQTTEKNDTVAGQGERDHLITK
T1 sequence (P06756 891-1048 partner limits assumed): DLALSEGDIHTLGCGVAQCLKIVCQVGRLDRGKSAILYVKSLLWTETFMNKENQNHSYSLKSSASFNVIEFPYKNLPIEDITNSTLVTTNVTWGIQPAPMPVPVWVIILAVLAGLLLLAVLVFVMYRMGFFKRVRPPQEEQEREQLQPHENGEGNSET
T1 sequence (P05106 27-788): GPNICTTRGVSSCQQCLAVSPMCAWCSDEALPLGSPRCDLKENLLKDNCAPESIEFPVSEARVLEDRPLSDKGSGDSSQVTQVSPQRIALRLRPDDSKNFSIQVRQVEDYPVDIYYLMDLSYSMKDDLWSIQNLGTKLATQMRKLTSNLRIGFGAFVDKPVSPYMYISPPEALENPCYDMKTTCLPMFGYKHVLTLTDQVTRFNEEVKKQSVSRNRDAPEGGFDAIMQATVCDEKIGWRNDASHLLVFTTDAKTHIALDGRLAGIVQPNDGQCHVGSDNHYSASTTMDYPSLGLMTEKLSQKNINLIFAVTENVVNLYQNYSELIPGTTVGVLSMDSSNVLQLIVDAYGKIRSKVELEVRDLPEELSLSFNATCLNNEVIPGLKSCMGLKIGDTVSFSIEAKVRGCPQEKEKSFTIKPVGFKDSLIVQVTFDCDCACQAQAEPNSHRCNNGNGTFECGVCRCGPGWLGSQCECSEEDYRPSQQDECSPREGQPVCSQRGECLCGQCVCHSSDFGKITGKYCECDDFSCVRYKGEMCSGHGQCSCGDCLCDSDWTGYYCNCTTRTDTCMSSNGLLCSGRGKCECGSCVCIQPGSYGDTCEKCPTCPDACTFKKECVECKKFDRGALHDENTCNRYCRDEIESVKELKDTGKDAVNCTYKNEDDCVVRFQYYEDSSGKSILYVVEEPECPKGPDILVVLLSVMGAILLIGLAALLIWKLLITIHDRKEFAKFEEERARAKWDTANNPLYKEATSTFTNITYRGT

For the compound `N=C(N)NCCOc1ccc(C(=O)NC[C@H](NC(=O)OCC(Cl)(Cl)Cl)C(=O)O)c(O)c1` [Example 165, (2S)-3-{[4-(2-{[amino(imino)methyl]amino}ethoxy)-2-hydroxybenzoyl]amino}-2-{[(2,2,2-trichloroethoxy)carbonyl]amino}propanoic acid], the IC50 is 0.39 µM.

As for `CCCCNC(=O)N[C@@H](CNC(=O)c1ccc(OCCNC2=NCCN2)cc1O)C(=O)O` [Example 108, (2S)-2-{[(butylamino)carbonyl]amino}-3-({4-[2-(4,5-dihydro-1H-imidazol-2-ylamino)ethoxy]-2-hydroxybenzoyl}amino)propanoic acid], the IC50 is 1.1 µM.

For `CC(C)OC(=O)N[C@@H](CNC(=O)c1ccc(OCCNC(=N)N)cc1O)C(=O)O` [Example 161, (2S)-3-{[4-(2-{[amino(imino)methyl]amino}ethoxy)-2-hydroxybenzoyl]amino}-2-[(isopropoxycarbonyl)amino]propanoic acid], the IC50 came out at 0.9 µM.

With `CC(C)C(=O)N[C@@H](CNC(=O)c1ccc(OCCNC2=NCCN2)cc1O)C(=O)O` [Example 118, (2S)-3-({4-[2-(4,5-dihydro-1H-imidazol-2-ylamino)ethoxy]-2-hydroxybenzoyl}-amino)-2-(isobutyrylamino)propanoic acid], the IC50 was above 1 µM.

Turning to `CC(C)(C)COC(=O)N[C@@H](CNC(=O)c1ccc(OCCNc2ncccn2)cc1O)C(=O)O` [Example 53, (2S)-3-({2-hydroxy-4-[2-(pyrimidin-2-ylamino)ethoxy]benzoyl}-amino)-2-{[(neopentyloxy)carbonyl]amino}propanoic acid], the IC50 amounted to 34 µM.

As for `CCCCCCOC(=O)N[C@@H](CNC(=O)c1ccc(OCCNC(=O)NCc2ccncc2)cc1O)C(=O)O` [Example 255, (2S)-2-{[(hexyloxy)carbonyl]amino}-3-({2-hydroxy-4-[2-({[(pyridin-4-ylmethyl)amino]carbonyl}amino)ethoxy]benzoyl}amino)propanoic acid], the IC50 was 5.31 µM.

Turning to `C=CCNC(=O)N[C@@H](CNC(=O)c1ccc(OCCNC2=NCCN2)cc1O)C(=O)O` [Example 111, (2S)-2-{[(allylamino)carbonyl]amino}-3-({4-[2-(4,5-dihydro-1H-imidazol-2-ylamino)ethoxy]-2-hydroxybenzoyl}amino)propanoic acid], the IC50 was determined as 0.856 µM.

On to `N=C(N)NCCOc1ccc(C(=O)NC[C@H](NC(=O)c2cccc(Cl)c2)C(=O)O)c(O)c1` [Example 215, (2S)-3-{[4-(2-{[amino(imino)methyl]amino}ethoxy)-2-hydroxybenzoyl]amino}-2-[(3-chlorobenzoyl)amino]propanoic acid], for which the IC50 was above 1 µM.

For the compound `CC1(C)C(C(=O)N[C@@H](CNC(=O)c2ccc(OCCNC(=N)N)cc2O)C(=O)O)C1(C)C` [Example 195, (2S)-3-{[4-(2-{[amino(imino)methyl]amino}ethoxy)-2-hydroxybenzoyl]amino}-2-{[(2,2,3,3-tetramethylcyclopropyl)carbonyl]amino}propanoic acid], the IC50 is above 1 µM.

On to `O=C(N[C@@H](CNC(=O)c1ccc(OCCNC2=NCCN2)cc1O)C(=O)O)c1cccc(Cl)c1` [Example 141, (2S)-2-[(3-chlorobenzoyl)amino]-3-({4-[2-(4,5-dihydro-1H-imidazol-2-ylamino)-ethoxy]-2-hydroxybenzoyl}amino)propanoic acid], for which the IC50 is above 1 µM.

As to `CCCCCCOC(=O)N[C@@H](CNC(=O)c1ccc(OCCNC(=O)NCc2cccnc2)cc1O)C(=O)O` [Example 241, (2S)-2-{[(hexyloxy)carbonyl]amino}-3-({2-hydroxy-4-[2-({[(pyridin-3-ylmethyl)-amino]carbonyl}amino)ethoxy]benzoyl}amino)propanoic acid], the IC50 is 4.1 µM.

On to `C#CCOC(=O)N[C@@H](CNC(=O)c1ccc(OCCNC2=NCCCN2)cc1O)C(=O)O` [Example 13, (2S)-3-({2-hydroxy-4-[2-(1,4,5,6-tetrahydropyrimidin-2-ylamino)ethoxy]benzoyl}-amino)-2-{[(prop-2-ynyloxy)carbonyl]amino}propanoic acid], for which the IC50 was 0.183 µM.

Regarding `N=C(N)NCCOc1ccc(C(=O)NC[C@H](NC(=O)c2ccc(Br)cc2)C(=O)O)c(O)c1` [Example 213, (2S)-3-{[4-(2-{[amino(imino)methyl]amino}ethoxy)-2-hydroxybenzoyl]amino}-2-[(4-bromobenzoyl)amino]propanoic acid], the IC50 was above 1 µM.

In the case of `O=C(NCCOc1ccc(C(=O)NC[C@H](NC(=O)OCc2ccccc2)C(=O)O)c(O)c1)NCc1ccc(Cl)cc1Cl` [Example 270, (2S)-2-{[(benzyloxy)carbonyl]amino}-3-({4-[2-({[(2,4-dichlorobenzyl)amino]-carbonyl}amino)ethoxy]-2-hydroxybenzoyl}amino)propanoic acid], the IC50 amounted to 21.7 µM.

On to `COC(=O)N[C@@H](CNC(=O)c1ccc(OCCNc2ncccn2)cc1O)C(=O)O` [Example 65, (2S)-3-({2-hydroxy-4-[2-(pyrimidin-2-ylamino)ethoxy]benzoyl}amino)-2-[(methoxycarbonyl)amino]propanoic acid], for which the IC50 was found to be 100 µM.

Consider `CC(C)OC(=O)N[C@@H](CNC(=O)c1ccc(OCCNC(=O)NCc2cccnc2)cc1O)C(=O)O` [Example 237, (2S)-3-({2-hydroxy-4-[2-({[(pyridin-3-ylmethyl)amino]carbonyl}-amino)ethoxy]-benzoyl}amino)-2-[(isopropoxycarbonyl)amino]propanoic acid], for which the IC50 turned out to be 2.7 µM.

With `Cc1cccc(C(=O)N[C@@H](CNC(=O)c2ccc(OCCNC(=N)N)cc2O)C(=O)O)c1C` [Example 214, (2S)-3-{[4-(2-{[amino(imino)methyl]amino}ethoxy)-2-hydroxybenzoyl]amino}-2-[(2,3-dimethylbenzoyl)amino]propanoic acid], the IC50 was 2.31 µM.

With `CC(C)OC(=O)N[C@@H](CNC(=O)c1ccc(OCCNC(=O)NCc2ccccc2)cc1O)C(=O)O` [Example 224, (2S)-3-{[4-(2-{[(benzylamino)carbonyl]amino}ethoxy)-2-hydroxybenzoyl]amino}-2-[(isopropoxycarbonyl)amino]propanoic acid], the IC50 was found to be 4.1 µM.

As to `O=C(NCc1ccccc1)N[C@@H](CNC(=O)c1ccc(OCCNC2=NCCN2)cc1O)C(=O)O` [Example 113, (2S)-2-{[(benzylamino)carbonyl]amino}-3-({^4-[2-(4,5-dihydro-1H-imidazol-2-ylamino)ethoxy]-2-hydroxybenzoyl}amino)propanoic acid], the IC50 stood at 3.03 µM.

Turning to `O=C(NCCOc1ccc(C(=O)NC[C@H](NC(=O)OCc2ccccc2)C(=O)O)c(O)c1)NCc1ccc(Cl)cc1` [Example 263, (2S)-2-{[(benzyloxy)carbonyl]amino}-3-({4-[2-({[(4-chlorobenzyl)amino]-carbonyl}-amino)ethoxy]-2-hydroxybenzoyl}amino)propanoic acid], the IC50 turned out to be 29 µM.

Turning to `C#CCOC(=O)N[C@@H](CNC(=O)c1ccc(OCCNC2=NCCN2)cc1O)C(=O)O` [Example 103, (2S)-3-({4-[2-(4,5-dihydro-1H-imidazol-2-ylamino)ethoxy]-2-hydroxybenzoyl}-amino)-2-{[(prop-2-ynyloxy)carbonyl]amino}propanoic acid], the IC50 stood at 0.21 µM.

Consider `CCCCCC(=O)N[C@@H](CNC(=O)c1ccc(OCCNC2=NCCN2)cc1O)C(=O)O` [Example 120, (2S)-3-({4-[2-(4,5-dihydro-1H-imidazol-2-ylamino)ethoxy]-2-hydroxybenzoyl}-amino)-2-(hexanoylamino)propanoic acid], for which the IC50 is above 1 µM.

With `O=C(Nc1ccccc1Br)N[C@@H](CNC(=O)c1ccc(OCCNC2=NCCCN2)cc1O)C(=O)O` [Example 28, (2S)-2-{[(2-bromoanilino)carbonyl]amino}-3-({2-hydroxy-4-[2-(1,4,5,6-tetrahydropyrimidin-2-ylamino)ethoxy]benzoyl}amino)propanoic acid], the IC50 came to 0.159 µM.

For the compound `CC(C)COC(=O)N[C@@H](CNC(=O)c1ccc(OCCNc2ncccn2)cc1O)C(=O)O` [Example 56, (2S)-3-({2-hydroxy-4-[2-(pyrimidin-2-ylamino)ethoxy]benzoyl}amino)-2-[(isobutoxycarbonyl)amino]propanoic acid], the IC50 was found to be 85.8 µM.

For `CCCCCCOC(=O)N[C@@H](CNC(=O)c1ccc(OCCNC2=NCCCN2)cc1O)C(=O)O` [Example 8, (2S)-2-{[(hexyloxy)carbonyl]amino}-3-({2-hydroxy-4-[2-(1,4,5,6-tetrahydropyrimidin-2-ylamino)ethoxy]benzoyl}amino)propanoic acid], the IC50 is above 1 µM.

Take `O=C(NCc1ccccc1)N[C@@H](CNC(=O)c1ccc(OCCNc2ncccn2)cc1O)C(=O)O` [Example 92, (2S)-2-{[(benzylamino)carbonyl]amino}-3-({2-hydroxy-4-[2-(pyrimidin-2-ylamino)ethoxy]benzoyl}amino)propanoic acid]: the IC50 is above 1 µM.

Regarding `CCCCC(=O)N[C@@H](CNC(=O)c1ccc(OCCNC(=N)N)cc1O)C(=O)O` [Example 193, (2S)-3-{[4-(2-{[amino(imino)methyl]amino}ethoxy)-2-hydroxybenzoyl]amino}-2-(pentanoylamino)propanoic acid], the IC50 is above 1 µM.

As to `CC(C)(C)COC(=O)N[C@@H](CNC(=O)c1ccc(OCCNC2=NCCN2)cc1O)C(=O)O` [Example 95], the IC50 was found to be 0.105 µM.

In the case of `O=C(CCc1ccccc1)N[C@@H](CNC(=O)c1ccc(OCCNC2=NCCN2)cc1O)C(=O)O` [Example 128, (2S)-3-({4-[2-(4,5-dihydro-1H-imidazol-2-ylamino)ethoxy]-2-hydroxybenzoyl}-amino)-2-[(3-phenylpropanoyl)amino]propanoic acid], the IC50 was above 1 µM.

Consider `O=C(NCCOc1ccc(C(=O)NC[C@H](NC(=O)OCc2ccccc2)C(=O)O)c(O)c1)NCc1ccccc1Cl` [Example 267, (2S)-2-{[(benzyloxy)carbonyl]amino}-3-({4-[2-({[(2-chlorobenzyl)amino]carbonyl}-amino)ethoxy]-2-hydroxybenzoyl}amino)propanoic acid], for which the IC50 is 10.2 µM.
